ChEMBL document CHEMBL5335822, “Identification of benzothiazole derived monosaccharides as potent, selective, and orally bioavailable inhibitors of human and mouse galectin-3; a rare example of using a S···O binding interaction for drug design” (Bioorg Med Chem, 2024)

Legend:
[1] = target: Galectin-3 (Mus musculus, UniProt P16110); assay: Inhibition of mouse Galectin-3
[2] = Permeability of the compound at pH 5.5 incubated for 4 hrs by PAMPA based SpectraMax UV-plate reader analysis; assay type: ADME; settings: read-out: permeability
[3] = Permeability of the compound at pH 7.4 incubated for 4 hrs by PAMPA based SpectraMax UV-plate reader analysis; assay type: ADME; settings: read-out: permeability
[4] = target: Galectin-1 (Homo sapiens, UniProt P09382); assay: Inhibition of human Galectin-1
[5] = target: Galectin-9 (Homo sapiens, UniProt O00182); assay: Inhibition of human Galectin-9
[6] = Cmax in mouse at 10 mg/kg,po administration; assay type: ADME, organism-based; set-up: dose 10 mg/kg, route po; settings: in vivo
[7] = AUC in mouse at 10 mg/kg,po administration; assay type: ADME, organism-based; set-up: dose 10 mg/kg, route po; settings: in vivo
[8] = Clearance in mouse at 10 mg/kg,po administration; assay type: ADME, organism-based; settings: in vivo
[9] = Volume of distribution at steady state in mouse at 10 mg/kg,po administration; assay type: ADME, organism-based; settings: in vivo
[10] = Oral bioavailability in mouse at 10 mg/kg administration; assay type: ADME, organism-based; settings: in vivo
[11] = target: Galectin-3 (Homo sapiens, UniProt P17931); assay: Inhibition of human Galectin-3
[12] = species on record: Homo sapiens; assay: Selectivity ratio of IC50 for inhibition of human Galectin-1 to IC50 for inhibition of human Galectin-3
[13] = species on record: Homo sapiens; assay: Selectivity ratio of IC50 for inhibition of human Galectin-9 to IC50 for inhibition of human Galectin-3

Chain of Galectin-9 (O00182 whole entry): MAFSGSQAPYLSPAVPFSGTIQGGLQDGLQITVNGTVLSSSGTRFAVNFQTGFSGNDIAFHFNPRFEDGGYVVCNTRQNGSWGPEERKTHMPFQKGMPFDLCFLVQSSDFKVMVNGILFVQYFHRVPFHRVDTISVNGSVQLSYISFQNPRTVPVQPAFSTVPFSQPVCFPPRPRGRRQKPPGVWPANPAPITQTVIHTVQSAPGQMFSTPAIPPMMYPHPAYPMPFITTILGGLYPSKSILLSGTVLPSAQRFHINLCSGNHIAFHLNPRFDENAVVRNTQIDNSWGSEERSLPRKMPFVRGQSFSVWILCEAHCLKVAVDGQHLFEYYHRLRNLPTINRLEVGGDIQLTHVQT
Chain of Galectin-3 (Mus musculus, UniProt P16110) (P16110 whole entry): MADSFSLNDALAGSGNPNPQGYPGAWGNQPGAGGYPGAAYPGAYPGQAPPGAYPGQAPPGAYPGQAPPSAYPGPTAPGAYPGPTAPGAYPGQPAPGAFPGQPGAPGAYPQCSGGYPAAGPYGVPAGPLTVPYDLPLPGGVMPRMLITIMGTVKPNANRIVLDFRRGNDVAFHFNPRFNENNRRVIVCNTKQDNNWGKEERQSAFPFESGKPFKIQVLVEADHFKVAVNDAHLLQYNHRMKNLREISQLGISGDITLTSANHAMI
Chain of Galectin-3 (Homo sapiens, UniProt P17931) (P17931 whole entry): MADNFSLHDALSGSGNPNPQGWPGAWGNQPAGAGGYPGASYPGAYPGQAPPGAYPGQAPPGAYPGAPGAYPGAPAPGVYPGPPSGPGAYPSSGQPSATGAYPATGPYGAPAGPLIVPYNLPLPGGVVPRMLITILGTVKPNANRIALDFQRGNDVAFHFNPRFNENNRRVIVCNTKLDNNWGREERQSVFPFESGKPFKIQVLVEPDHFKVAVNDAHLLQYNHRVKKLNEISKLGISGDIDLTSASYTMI
Chain of Galectin-1 (P09382 whole entry): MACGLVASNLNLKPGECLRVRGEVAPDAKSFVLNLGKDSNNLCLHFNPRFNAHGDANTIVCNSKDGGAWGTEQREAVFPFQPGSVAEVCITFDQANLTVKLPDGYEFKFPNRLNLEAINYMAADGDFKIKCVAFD

IC50 [1] [nM] | Papp at 4 h [2] [×10⁻⁶ cm/s] | Papp at 4 h [3] [×10⁻⁶ cm/s] | IC50 [11] [nM] | SMILES | also measured
169 | 29.4 | 29.5 | – | CO[C@H]1C(C(=O)N(C)c2ccc3ncsc3c2)O[C@H](CO)[C@H](O)[C@@H]1n1cc(-c2ccc(Cl)c(F)c2F)nn1 (single isomer, unassigned) | IC50 [4]: 1580 nM; IC50 [5]: 2750 nM; Cmax [6]: 3100 nM; AUC [7]: 13 µM·h; CL/F [8]: 12 mL/min/kg; Vdss [9]: 2.1 L/kg; bioavailability [10]: 52%
86 | 24.1 | 16.3 | 8.8 | Cc1nc([C@@H]2O[C@H](CO)[C@H](O)[C@H](n3cc(-c4ccc(Cl)c(F)c4F)nn3)[C@H]2O)n(-c2ccc3ncsc3c2)n1 | IC50 [4]: 3830 nM; IC50 [5]: 3010 nM; Ratio IC50 [12]: 435; Ratio IC50 [13]: 342
206 | 57.8 | 53.8 | – | CO[C@@H]1[C@@H](n2cc(-c3cc(F)c(Br)c(F)c3)nn2)[C@@H](O)[C@@H](CO)O[C@H]1C(=O)N(C)c1ccc2ncsc2c1 | –
151 | 10.4 | – | 18 | Cc1nc([C@@H]2O[C@H](CO)[C@H](O)[C@H](n3cc(-c4cc(F)c(Cl)c(F)c4)nn3)[C@H]2O)n(-c2ccc3ncsc3c2)n1 | –
95 | 27.9 | 26.9 | – | CO[C@@H]1[C@@H](n2cc(-c3ccc(Br)c(F)c3F)nn2)[C@@H](O)[C@@H](CO)O[C@H]1C(=O)N(C)c1ccc2ncsc2c1 | –
150 | 59.1 | – | – | CO[C@@H]1[C@@H](n2cc(-c3cc(F)c(Cl)c(F)c3)nn2)[C@@H](O)[C@@H](CO)O[C@H]1c1nc(C)nn1-c1ccc2ncsc2c1 | –
1220 | – | – | 63 | Cc1nc2ccc(-n3ncnc3[C@@H]3O[C@H](CO)[C@H](O)[C@H](n4cc(-c5cc(F)c(F)c(F)c5)nn4)[C@H]3O)cc2s1 | –
504 | 14.4 | 17.2 | – | CO[C@@H]1[C@@H](n2cc(-c3cc(F)c(F)c(F)c3)nn2)[C@@H](O)[C@@H](CO)O[C@H]1C(=O)N(C)c1ccc2ncsc2c1 | IC50 [4]: 3250 nM; IC50 [5]: 9970 nM
178 | 16 | 16.7 | – | CO[C@@H]1[C@@H](n2cc(-c3cc(F)c(Cl)c(F)c3)nn2)[C@@H](O)[C@@H](CO)O[C@H]1C(=O)N(C)c1ccc2ncsc2c1 | –
1310 | – | – | 71 | Cc1nc2cc(Cl)c(-n3ncnc3[C@@H]3O[C@H](CO)[C@H](O)[C@H](n4cc(-c5cc(F)c(F)c(F)c5)nn4)[C@H]3O)cc2s1 | –
45 | 30.7 | 30.1 | 7.2 | Cc1nc([C@@H]2O[C@H](CO)[C@H](O)[C@H](n3cc(-c4ccc(Br)c(F)c4F)nn3)[C@H]2O)n(-c2ccc3ncsc3c2)n1 | IC50 [4]: 2600 nM; IC50 [5]: 2110 nM; Ratio IC50 [12]: 361; Ratio IC50 [13]: 293; Cmax [6]: 600 nM; AUC [7]: 3 µM·h
3510 | 1.9 | 0.8 | – | Cc1nc2ccc(N(C)C(=O)[C@@H]3O[C@H](CO)[C@H](O)[C@H](n4cc(-c5cc(F)c(F)c(F)c5)nn4)[C@H]3O)cc2s1 | –
429 | – | – | – | CCN(C(=O)[C@@H]1O[C@H](CO)[C@H](O)[C@H](n2cc(-c3cc(F)c(Cl)c(F)c3)nn2)[C@H]1OC)c1ccc2ncsc2c1 | –
> 30000 | – | – | > 10000 | CO[C@@H]1[C@@H](n2cc(-c3cc(F)c(Cl)c(F)c3)nn2)[C@@H](O)[C@@H](CO)O[C@H]1C(=O)Nc1ccc2ncsc2c1 | –
939 | – | – | 37 | OC[C@H]1O[C@@H](c2ncnn2-c2ccc3ncsc3c2)[C@H](O)[C@@H](n2cc(-c3cc(F)c(F)c(F)c3)nn2)[C@H]1O | –
2510 | 29.8 | 18.6 | – | CO[C@@H]1[C@@H](n2cc(-c3cc(F)c(F)c(F)c3)nn2)[C@@H](O)[C@@H](CO)O[C@H]1C(=O)N(C)c1ccc2nc(C)sc2c1 | –
1200 | – | – | 52 | Cc1nc2cc(C)c(-n3ncnc3[C@@H]3O[C@H](CO)[C@H](O)[C@H](n4cc(-c5cc(F)c(F)c(F)c5)nn4)[C@H]3O)cc2s1 | –
150 | – | – | 30 | CO[C@@H]1[C@@H](n2cc(-c3cc(F)c(Br)c(F)c3)nn2)[C@@H](O)[C@@H](CO)O[C@H]1c1nc(C)nn1-c1ccc2ncsc2c1 | –
61 | 104 | – | – | CO[C@@H]1[C@@H](n2cc(-c3ccc(Br)c(F)c3F)nn2)[C@@H](O)[C@@H](CO)O[C@H]1c1nc(C)nn1-c1ccc2ncsc2c1 | IC50 [4]: 3520 nM; IC50 [5]: 2420 nM; Ratio IC50 [12]: 271; Ratio IC50 [13]: 186; Cmax [6]: 1800 nM; AUC [7]: 8.7 µM·h
144 | 5.2 | 4.8 | – | Cc1nc([C@@H]2O[C@H](CO)[C@H](O)[C@H](n3cc(-c4cc(F)c(Br)c(F)c4)nn3)[C@H]2O)n(-c2ccc3ncsc3c2)n1 | –
179 | 9 | 13.7 | 22 | Cc1nc([C@@H]2O[C@H](CO)[C@H](O)[C@H](n3cc(-c4cc(F)c5ccccc5c4)nn3)[C@H]2O)n(-c2ccc3ncsc3c2)n1 | –
536 | 1.5 | 3.9 | 28 | Cc1nc([C@@H]2O[C@H](CO)[C@H](O)[C@H](n3cc(-c4cc(F)c(F)c(F)c4)nn3)[C@H]2O)n(-c2ccc3ncsc3c2)n1 | –
84 | 73.1 | 80.2 | 11 | CO[C@@H]1[C@@H](n2cc(-c3ccc(Cl)c(F)c3F)nn2)[C@@H](O)[C@@H](CO)O[C@H]1c1nc(C)nn1-c1ccc2ncsc2c1 | IC50 [4]: 2720 nM; IC50 [5]: 3530 nM; Ratio IC50 [12]: 247; Ratio IC50 [13]: 321; Cmax [6]: 4300 nM; AUC [7]: 14 µM·h; CL/F [8]: 8 mL/min/kg; Vdss [9]: 1.8 L/kg; bioavailability [10]: 40%
